Measured values taken from a polymer gas permeability compilation.

| CH4 permeability [Barrer] | CO2 permeability [Barrer] | H2 permeability [Barrer] | N2 permeability [Barrer] | O2 permeability [Barrer] | SMILES |
| --- | --- | --- | --- | --- | --- |
| 190 | 1220 | 455 | 70.5 | 195 | *C(=C(*)c1ccc(-c2ccc(C(C)(C)C)cc2)cc1)c1ccccc1 (repeat unit) |
| 450 | 2200 | 810 | 160 | 390 | *C(=C(*)c1ccc(-c2ccc([Si](C)(C)C)cc2)cc1)c1ccccc1 (repeat unit) |
| 120 | 640 | 420 | 44 | 140 | *C(=C(*)c1ccc(C[Si](C)(C)C)cc1)c1ccccc1 (repeat unit) |
| 0.015 | 0.749 | – | 0.02 | 0.185 | *Nc1ccc(Oc2ccc(Oc3ccc(NC(=O)CN4C(=O)c5ccc(C(*)=O)cc5C4=O)cc3)cc2)cc1 (repeat unit) |
| 0.11 | 3.2 | 7.6 | 0.13 | 0.75 | *Nc1ccc(S(=O)(=O)c2ccc(NC(=O)c3cc(C(*)=O)cc(-c4ccccc4)c3)cc2)cc1 (repeat unit) |
| 0.123 | 4.21 | 43 | 0.191 | 1.43 | *OC(=O)Oc1c(Br)cc(C(C)(C)c2cc(Br)c(*)c(Br)c2)cc1Br (repeat unit) |
| 0.223 | 6.68 | – | 0.36 | 2.29 | *OC(=O)Oc1c(Cl)cc(C(C)(C)c2cc(Cl)c(*)c(Cl)c2)cc1Cl (repeat unit) |
| 0.53 | 24 | – | 0.68 | 3.5 | *OC(=O)c1cccc(C(=O)Oc2c(C)cc(C(C)(C)c3cc(C)c(O*)c(C)c3)cc2C)c1 (repeat unit) |
| 0.044 | 2.5 | – | 0.076 | 0.46 | *OC(=O)c1cccc(C(=O)Oc2ccc(C(C)(C)c3ccc(O*)c(C)c3)cc2C)c1 (repeat unit) |
| 1.4 | 28.5 | 31 | 0.98 | 4.3 | *OC1OC(COC(=O)NC(C)(C)C)C(*)C(OC(C)=O)C1OC(C)=O (repeat unit) |
| 9.2 | 91 | 68 | 4.3 | 15 | *OC1OC(COCC)C(*)C(OCC)C1OCC (repeat unit) |
| 6.1 | 67.7 | 54.4 | 3.18 | 11.9 | *OCC1OC(COCC)C(*)C(OCC)C1OCC (repeat unit) |
| 360 | 1200 | – | – | 237 | *O[Si](C)(C)CCCCCCCC[Si](*)(C)C (repeat unit) |
| 0.853 | 21.5 | 54 | 0.89 | 5.63 | *Oc1c(Br)cc(C(C)(C)c2cc(Br)c(OC(=O)c3cc(C(*)=O)cc(C(C)(C)C)c3)c(Br)c2)cc1Br (repeat unit) |
| 0.89 | 32 | 10.6 | 1.8 | 9.7 | *Oc1c(Br)cc(C(c2cc(Br)c(OC(*)=O)c(Br)c2)(C(F)(F)F)C(F)(F)F)cc1Br (repeat unit) |
| 1.13 | 18 | – | 2.13 | 8.45 | *Oc1c(C)cc(*)c(C(=O)c2ccc(Br)cc2)c1C (repeat unit) |
| 0.98 | 16.8 | – | 1.8 | 8.6 | *Oc1c(C)cc(*)c(C(=O)c2ccc(Cl)cc2)c1C (repeat unit) |

| CH4 permeability [Barrer] | CO2 permeability [Barrer] | H2 permeability [Barrer] | N2 permeability [Barrer] | O2 permeability [Barrer] | SMILES |
| --- | --- | --- | --- | --- | --- |
| 1.06 | 22.7 | – | 1.06 | 6.27 | *Oc1c(C)cc(C(C)(C)c2cc(C)c(OC(=O)c3cc(C(*)=O)cc(C(C)(C)C)c3)c(Br)c2)cc1Br (repeat unit) |
| 0.472 | 12 | 38.6 | 0.579 | 3.26 | *Oc1c(C)cc(C(C)(C)c2cc(C)c(OC(=O)c3cccc(C(*)=O)c3)c(C)c2)cc1C (repeat unit) |
| 1.1 | 20 | 52 | 1.1 | 5.6 | *Oc1c(C)cc(C(C)(C)c2cc(C)c(Oc3ccc(C(=O)c4ccc(*)cc4)cc3)c(C)c2)cc1C (repeat unit) |
| 0.28 | 7 | 20 | 0.281 | 1.8 | *Oc1c(C)cc(C(C)(C)c2cccc(C(C)(C)c3cc(C)c(Oc4ccc(S(=O)(=O)c5ccc(*)cc5)cc4)c(C)c3)c2)cc1C (repeat unit) |
| 3 | 72 | – | 4 | 18 | *Oc1c(C)cc(C(c2cc(C)c(Oc3ccc(S(=O)(=O)c4ccc(*)cc4)cc3)c(C)c2)(C(F)(F)F)C(F)(F)F)cc1C (repeat unit) |
| 0.225 | 7.69 | 16.9 | 0.21 | 1.55 | *Oc1cc(C)c(C2(c3cc(C)c(Oc4ccc(S(=O)(=O)c5ccc(*)cc5)cc4)cc3C)OC(=O)c3ccccc32)cc1C (repeat unit) |
| 83.7 | – | 3430 | 87.4 | 542 | *Oc1cc2c(cc1O*)C(=O)N(c1c(C)c(C)c(-n3c(=O)c4cc5oc6cc7c(cc6oc5cc4c3=O)C3(C(C)C)c4ccccc4C7(C(C)C)c4cc(*)c(*)cc43)c(C)c1C)C2=O (repeat unit) |
| 93 | 1540 | 750 | 61.5 | 212 | *Oc1cc2c(cc1O*)C(C)(C)CC1(CC(C)(C)c3cc4c(cc3O1)Oc1c(C#N)c(*)c(*)c(C#N)c1O4)O2 (repeat unit) |
| 27 | 520 | 360 | 23 | 85 | *Oc1cc2c(cc1O*)C1(CC2(C)C)CC(C)(C)c2cc3oc4cc5c(=O)n(-c6c(C)c(C)c(N7C(=O)c8cc(*)c(*)cc8C7=O)c(C)c6C)c(=O)c5cc4oc3cc21 (repeat unit) |
| 580 | 6100 | 2100 | 320 | 820 | *Oc1cc2c(cc1O*)C1(CC2(C)CC)c2cc3c(cc2C(C)(CC)C1C)Oc1c(C#N)c(*)c(*)c(C#N)c1O3 (repeat unit) |
| 1700 | 13200 | 5150 | 815 | 2310 | *Oc1cc2c(cc1O*)C1(c3cc(C(C)(C)C)ccc3-2)c2cc(C(C)(C)C)ccc2-c2cc3c(cc21)Oc1c(C#N)c(*)c(*)c(C#N)c1O3 (repeat unit) |
| 582 | 8500 | 4430 | 380 | 1510 | *Oc1cc2c(cc1O*)C1(c3cc(C)ccc3-2)c2cc(C)ccc2-c2cc3c(cc21)Oc1c(C#N)c(*)c(*)c(C#N)c1O3 (repeat unit) |
| 622 | 8890 | 4520 | 442 | 1620 | *Oc1cc2c(cc1O*)C1(c3ccccc3-2)c2ccccc2-c2cc3c(cc21)Oc1c(C#N)c(*)c(*)c(C#N)c1O3 (repeat unit) |
| 563 | 7880 | 4420 | 341 | 1390 | *Oc1cc2c(cc1O*)C1(c3ccccc3-c3cc4c(cc31)Oc1c(C#N)c(*)c(*)c(C#N)c1O4)c1cc(C)c(C)cc1-2 (repeat unit) |
| 93 | 1300 | 734 | 52 | 205 | *Oc1ccc(-c2c(-c3ccc(C#N)cc3)c(-c3ccc(C#N)cc3)c(-c3ccc4c(c3)Oc3c(C#N)c(*)c(*)c(C#N)c3O4)c(-c3ccc(C#N)cc3)c2-c2ccc(C#N)cc2)cc1O* (repeat unit) |
| 132 | 1630 | 856 | 60 | 256 | *Oc1ccc(-c2c(-c3ccc(C)cc3)c(-c3ccc(C)cc3)c(-c3ccc4c(c3)Oc3c(C#N)c(*)c(*)c(C#N)c3O4)c(-c3ccc(C)cc3)c2-c2ccc(C)cc2)cc1O* (repeat unit) |
| 0.34 | 8.2 | 20 | 0.61 | 2.5 | *Oc1ccc(-c2ccc(Oc3c(F)c(F)c(COC(C4CCCC(C(OCc5c(F)c(F)c(*)c(F)c5F)(C(F)(F)F)C(F)(F)F)C4)(C(F)(F)F)C(F)(F)F)c(F)c3F)cc2)cc1 (repeat unit) |

| SMILES | CH4 permeability [Barrer] | CO2 permeability [Barrer] | H2 permeability [Barrer] | N2 permeability [Barrer] | O2 permeability [Barrer] |
| --- | --- | --- | --- | --- | --- |
| */C(C)=C(/*)[Si](C)(C)C(C)C (repeat unit) | 360 | 2200 | 1650 | 170 | 460 |
| *OCC(*)CCl (repeat unit) | 0.657 | 8 | – | 0.24 | – |
| *OCCCCCC(*)=O (repeat unit) | 1.57 | 16.8 | 5.06 | 0.59 | 1.32 |
| *O[Si](*)(C)CCC(F)(F)F (repeat unit) | 201 | 1390 | – | 88.3 | 200 |
| *O[Si](C)(C)CCCCCC[Si](*)(C)C (repeat unit) | 395 | 1310 | – | – | 265 |
| *Oc1c(C)cc(*)c([N+](=O)[O-])c1C (repeat unit) | 2.4 | 40.4 | – | 2.4 | 11.5 |
| *Oc1c(C)cc(*)cc1C (repeat unit) | 4.1 | 66 | 68.7 | 3.5 | 14.6 |
